Experimental data as given in patent US11597701B2, “Integrin ligands and uses thereof” (Arrowhead Pharmaceuticals, Inc., priority 2017, dated 2023).

Molecular target: αvβ6 integrin (Homo sapiens, UniProt P06756+P18564)
Experiment: IC50 binding activity (Examples 3 and 12)
Conditions: Example 12, Table 17; azide-functionalized structures (2b, 6.1b, 7b, 23b) examined
From the text: As reported in the following Table 1, IC50 binding data was obtained for the αvβ6 integrin ligands of Structures 1 and 2:
Azide-functionalized structures (i.e., Structures 1b and 2b) were examined for IC50 under conditions typically used and known in the art.
As reported in the following Table 17, additional IC50 binding data was obtained for the αvβ6 integrin ligands of Structures 2, 6.1, 7, and 23 used in certain Examples herein: […]

Chain of αvβ6 integrin (P06756 31-1048): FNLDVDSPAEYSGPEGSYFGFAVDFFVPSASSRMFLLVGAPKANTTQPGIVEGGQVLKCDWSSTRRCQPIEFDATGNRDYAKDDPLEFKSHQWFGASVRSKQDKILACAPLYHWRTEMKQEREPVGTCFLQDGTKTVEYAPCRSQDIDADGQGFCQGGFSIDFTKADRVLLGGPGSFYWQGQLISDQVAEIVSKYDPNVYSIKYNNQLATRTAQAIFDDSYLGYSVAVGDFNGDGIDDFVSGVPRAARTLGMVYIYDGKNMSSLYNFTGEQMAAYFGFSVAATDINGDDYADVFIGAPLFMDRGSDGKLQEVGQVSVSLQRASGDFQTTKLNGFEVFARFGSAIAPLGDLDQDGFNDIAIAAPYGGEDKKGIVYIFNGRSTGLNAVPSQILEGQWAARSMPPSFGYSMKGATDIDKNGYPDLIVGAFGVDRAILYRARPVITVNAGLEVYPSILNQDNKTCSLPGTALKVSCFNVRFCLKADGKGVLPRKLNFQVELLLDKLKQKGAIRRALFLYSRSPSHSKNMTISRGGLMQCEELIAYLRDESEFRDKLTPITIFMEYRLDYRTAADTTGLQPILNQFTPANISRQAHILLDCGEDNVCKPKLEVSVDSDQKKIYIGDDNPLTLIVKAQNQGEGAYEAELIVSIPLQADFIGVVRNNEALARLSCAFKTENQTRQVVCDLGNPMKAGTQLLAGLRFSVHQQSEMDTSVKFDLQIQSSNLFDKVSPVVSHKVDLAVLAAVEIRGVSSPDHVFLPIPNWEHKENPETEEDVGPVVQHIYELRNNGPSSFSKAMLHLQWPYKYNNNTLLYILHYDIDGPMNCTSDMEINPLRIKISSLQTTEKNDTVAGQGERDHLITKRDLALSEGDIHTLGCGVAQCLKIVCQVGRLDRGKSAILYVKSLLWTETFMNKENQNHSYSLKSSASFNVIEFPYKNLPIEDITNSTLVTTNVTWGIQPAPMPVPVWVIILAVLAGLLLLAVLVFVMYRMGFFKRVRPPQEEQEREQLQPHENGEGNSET
Chain of αvβ6 integrin (P18564 22-788): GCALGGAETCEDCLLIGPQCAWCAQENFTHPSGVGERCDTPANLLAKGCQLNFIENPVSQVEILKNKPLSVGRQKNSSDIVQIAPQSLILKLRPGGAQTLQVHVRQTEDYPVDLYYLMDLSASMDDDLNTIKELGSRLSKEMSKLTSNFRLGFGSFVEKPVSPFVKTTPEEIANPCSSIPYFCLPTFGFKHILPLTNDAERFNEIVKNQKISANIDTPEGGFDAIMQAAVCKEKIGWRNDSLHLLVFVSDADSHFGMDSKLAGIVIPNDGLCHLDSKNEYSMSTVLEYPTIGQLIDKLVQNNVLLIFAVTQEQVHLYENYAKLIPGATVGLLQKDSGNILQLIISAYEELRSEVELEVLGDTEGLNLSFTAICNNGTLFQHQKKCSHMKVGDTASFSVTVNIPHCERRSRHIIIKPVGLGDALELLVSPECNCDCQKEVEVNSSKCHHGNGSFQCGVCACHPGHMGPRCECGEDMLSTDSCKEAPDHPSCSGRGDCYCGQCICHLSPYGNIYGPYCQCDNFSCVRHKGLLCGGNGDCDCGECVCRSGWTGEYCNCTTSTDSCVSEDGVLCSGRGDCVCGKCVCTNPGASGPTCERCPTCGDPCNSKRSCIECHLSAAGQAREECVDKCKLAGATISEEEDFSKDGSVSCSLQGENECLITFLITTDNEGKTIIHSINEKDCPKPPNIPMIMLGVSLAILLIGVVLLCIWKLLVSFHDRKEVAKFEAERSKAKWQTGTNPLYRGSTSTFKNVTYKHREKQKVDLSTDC

IC50: 1.6 nM
SMILES: Cc1ccnc(NCCCC(=O)NCC(=O)N[C@@H](CC(=O)O)c2ccc(-c3ccc(OCCOCCOCCOCCOCCN=[N+]=[N-])c4ccccc34)cc2)c1 [Structure 6.1]
